Source: patent US8338425B2, “Heterocyclic kinase inhibitors” (Concert Pharmaceuticals, Inc., priority 2007, dated 2012)
Where two headings read alike, the source gives them in different places.

Experiment: Human liver microsome (HLM) metabolic stability assay
Type: in vitro ADME
Conditions: pooled human liver microsomes, HLM 0.5 mg/mL, test compound 0.5 μM, NADPH, 37° C.
Description: Microsomal Assay: Human liver microsomes (20 mg/mL) were obtained from Xenotech, LLC (Lenexa, Kans.). β-nicotinamide adenine dinucleotide phosphate, reduced form (NADPH), magnesium chloride (MgCl2), and dimethyl sulfoxide (DMSO) were purchased from Sigma-Aldrich. The incubation mixtures were prepared according to Table 2:
Determination of Metabolic Stability: Two aliquots of this reaction mixture were used for a compound of this invention. The aliquots were incubated in a shaking water bath at 37° C. for 3 minutes. The test compound was then added into each aliquot at a final concentration of 0.5 μM. The reaction was initiated by the addition of cofactor (NADPH) into one aliquot (the other aliquot lacking NADPH served as the negative control). Both aliquots were then incubated in a shaking water bath at 37° C. Fifty microliters (50 μL) of the incubation mixtures were withdrawn in triplicate from each aliquot at 0, 5, 10, 20, and 30 minutes and combined with 50 μL of ice-cold acetonitrile to terminate the reaction. The same procedure was followed for dasatinib and for the positive control, 7-ethoxycoumarin. Testing was done in triplicate.
Data analysis: The in vitro half-lives (t1/2s) for test compounds were calculated from the slopes of the linear regression of % parent remaining (ln) vs incubation time relationship. in vitro t1/2=0.693/k
k=−[slope of linear regression of % parent remaining(ln) vs incubation time]
Data analysis was performed using Microsoft Excel Software.
The metabolic stability of compounds of Formula I was tested using pooled liver microsomal incubations. Full scan LC-MS analysis was then performed to detect major metabolites. Samples of the test compounds, exposed to pooled human liver microsomes, were analyzed using HPLC-MS (or MS/MS) detection. For determining metabolic stability, multiple reaction monitoring (MRM) was used to measure the disappearance of the test compounds. For metabolite detection, Q1 full scans were used as survey scans to detect the major metabolites.

[1] = 0-30 minutes, Experiment 1, read-out: t1/2 (min) Experiment 1
[2] = 0-30 minutes, Experiment 2, read-out: t1/2 (min) Experiment 2
[3] = average of Experiments 1 and 2, read-out: t1/2 (min) Average

Which half-life at 0.5 μM [1] does the source give for `Cc1nc(Nc2ncc(C(=O)Nc3c(C)cccc3Cl)s2)cc(N2CCN(CCO)CC2)n1` [Dasatinib, 2-{6-[4-(2-Hydroxy-ethyl)-piperazin-1-yl]-2-methyl-pyrimidin-4-ylamino}-thiazole-5-carboxylic acid (2-chloro-6-methyl-phenyl)-amide, reference compound] here?
The half-life at 0.5 μM was 16 min.

What about the half-life at 0.5 μM [2] of the same compound?
The half-life at 0.5 μM was 14.6 min.

And the half-life at 0.5 μM [3]?
The half-life at 0.5 μM was 15.3 min.

Which half-life at 0.5 μM [1] does the source give for `[2H]C([2H])([2H])c1cccc(Cl)c1NC(=O)c1cnc(Nc2cc(N3CCN(C([2H])([2H])C([2H])([2H])O)CC3)nc(C)n2)s1` [Compound 103, N-(2-Chloro-6-(methyl-d3)phenyl)-2-(6-(4-(1,1,2,2-d4-2-hydroxyethyl)piperazin-1-yl)-2-methylpyrimidin-4-ylamino)thiazole-5-carboxamide] here?
The half-life at 0.5 μM was 19.4 min.

What about the half-life at 0.5 μM [2] of the same compound?
The half-life at 0.5 μM was 17.2 min.

What about the half-life at 0.5 μM [3] of the same compound?
The half-life at 0.5 μM was 18.3 min.

For `[2H]C([2H])([2H])c1cccc(Cl)c1NC(=O)c1cnc(Nc2cc(N3C([2H])([2H])C([2H])([2H])N(C([2H])([2H])C([2H])([2H])O)C([2H])([2H])C3([2H])[2H])nc(C)n2)s1` [Compound 115, N-(2-Chloro-6-(methyl-d3)phenyl)-2-(6-(4-(1,1,2,2-d4-2-hydroxyethyl)-(piperazin-d8)-1-yl)-2-methylpyrimidin-4-ylamino)thiazole-5-carboxamide], which half-life at 0.5 μM [1] is on record?
Its half-life at 0.5 μM is 17.3 min.

What about the half-life at 0.5 μM [2] of the same compound?
The half-life at 0.5 μM was 18.2 min.

And the half-life at 0.5 μM [3]?
The half-life at 0.5 μM was 17.8 min.

Which results are given for `[2H]C1([2H])N(CCO)C([2H])([2H])C([2H])([2H])N(c2cc(Nc3ncc(C(=O)Nc4c(C)cccc4Cl)s3)nc(C)n2)C1([2H])[2H]` [Compound 117, N-(2-Chloro-6-methylphenyl)-2-(6-(4-(2-hydroxyethyl)-(piperazin-d8)-1-yl)-2-methylpyrimidin-4-ylamino)thiazole-5-carboxamide]?
half-life at 0.5 μM [1]: 19.6 min; half-life at 0.5 μM [2]: 18.5 min; half-life at 0.5 μM [3]: 19.1 min

With `[2H]C([2H])(O)CN1CCN(c2cc(Nc3ncc(C(=O)Nc4c(Cl)cccc4C([2H])([2H])[2H])s3)nc(C)n2)CC1` [Compound 101, N-(2-Chloro-6-(methyl-d3)phenyl)-2-(6-(4-(2,2-d2-2-hydroxyethyl)piperazin-1-yl)-2-methylpyrimidin-4-ylamino)thiazole-5-carboxamide] as the compound, how does the half-life at 0.5 μM [1] read?
The half-life at 0.5 μM was 17.7 min.

And the half-life at 0.5 μM [3]?
The half-life at 0.5 μM was 17.9 min.
